These results are taken from patent publication US8778954B2, “Phenylpyridine derivative and medicinal agent comprising same” (Kowa Company, Ltd., priority 2009, dated 2014).

What is called EC50 is the concentration giving half of the maximal effect. A high value points to lower potency in that assay.

This assay addresses T1, human PPARγ2 (Homo sapiens, UniProt P37231).
T1 construct: the amino acids 182 to 505 of human PPARγ2; expressed in transfected cells; host or cells: COS7 cells (African green monkey kidney)
T1 sequence (P37231 182-505): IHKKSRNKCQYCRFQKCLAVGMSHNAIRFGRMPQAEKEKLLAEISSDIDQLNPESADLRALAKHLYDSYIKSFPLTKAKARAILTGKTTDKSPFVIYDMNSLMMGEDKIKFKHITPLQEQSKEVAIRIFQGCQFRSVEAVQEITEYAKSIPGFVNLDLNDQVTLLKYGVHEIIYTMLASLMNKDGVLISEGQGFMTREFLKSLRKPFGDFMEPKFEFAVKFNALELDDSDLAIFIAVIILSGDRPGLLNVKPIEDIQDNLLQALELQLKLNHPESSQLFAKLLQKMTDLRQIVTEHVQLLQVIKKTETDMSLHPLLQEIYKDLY
In words: PPARγ activation activity, Gal4-PPARγ2 LBD luciferase transfection assay using COS7 cells. In kind it is cell-based. Conditions: Gal4-human PPARγ2 LBD chimera, 16 hours, rosiglitazone = 100%.

For `CCCCc1nc(C(C)C)n(-c2ncc(OCC)cn2)c(=O)c1Cc1ccc(-c2ccccc2-c2noc(=O)[nH]2)nc1` [Example 21, 3-{2-{5-{[4-butyl-1-(5-ethoxypyrimidin-2-yl)-2-isopropyl-6-oxo-1,6-dihydropyrimidin-5-yl]methyl}pyridin-2-yl}phenyl}-1,2,4-oxadiazol-5(4H)-one], the EC50 stood at 0.45 µM.

For `CCCCc1nc(C2CC2)n(-c2ncc(OCC)cn2)c(=O)c1Cc1ccc(-c2ccccc2-c2noc(=O)[nH]2)nc1` [Example 23, 3-{2-{5-{[4-butyl-2-cyclopropyl-1-(5-ethoxypyrimidin-2-yl)-6-oxo-1,6-dihydropyrimidin-5-yl]methyl}pyridin-2-yl}phenyl}-1,2,4-oxadiazol-5(4H)-one], a half-maximal response (EC50) required 0.76 µM.
